According to US7951359B2, “Compositions and methods for therapy or prevention of chemotherapy-induced neuropathy” (Merck Serono SA, priority 2004, dated 2011):

Legend:
[1] = Body weight in cisplatin induced neuropathy rat model; type: in vivo
Method: (c) 4 treated-cisplatin-intoxicated groups (n=10) consisting of animals receiving daily SC injections of IL-6 compound at 4 different doses: 0.3, 1, 3, 10 μg/kg; and (d) a 4-methylcatechol (4-MC)-treated, cisplatin-intoxicated group (n=10) receiving a daily IP injection of 4-MC at 10 μg/kg. […] The drug was diluted in 0.9% sterile aqueous solution of sodium chloride.

[2] = tested on: cisplatin induced neuropathy; test: Hot plate test in cisplatin-treated rats, co-administration; type: in vivo, rat
Method: The rat was placed inside a glass cylinder of 17 cm height and 21 cm diameter on a heating-plate maintained at 52° C. (Medite OTS 40, Microm, Francheville, Rhône, France). The animal behavior was observed, particularly the licking of a foot and the adjusted leap. The latency before licking a foot or before jumping to escape the heat (adjusted leap) was recorded. The time needed to feel the thermal pain is related to the thermal sensitivity and tends to increase when thermal sensitivity is altered.

[3] = tested on: cisplatin induced neuropathy; test: Hot plate test, therapeutic treatment of established cisplatin neuropathy; type: in vivo, rat
[4] = tested on: human WiDr colon carcinoma; test: Human WiDr colon carcinoma tumor growth in nude mice; type: in vivo, mouse
Method: The following experiment was carried out to check potential drug interaction between IL-6 and the chemotherapeutic agent in vivo.
Balb/c nude mice are used since have proven to be susceptible host systems for the growth of human WiDr colon carcinoma tumor cells. WiDr cells were provided by the bank of the National Cancer Research Institute Genova-Italy. Cell species: human, tissue: colon, tumor: colon adenocarcinoma, accession number: ICLC HTL00003.
Tumor size was recorded twice a week for 4 weeks starting 4 days after cell inoculation.
Each Balb/c nude mice (about 20-25 g body weight) was inoculated subcutaneously (s.c.) with 10^7+5% WiDr cells/mouse (0.2 mL/mouse of cell suspension) on day 1.
A group administered with 0.02% mouse albumin (Sigma) in 40 mM phosphate buffer at pH=7.0, s.c., a group administered with 3.5 mg/kg Cis-platinum, i.p. (in 0.9% NaCl sterile solution for injection), three groups of rats each treated with IL-6 (in 0.02% mouse albumin in 40 mM phosphate buffer at pH=7.0), s.c. at 3, 10 or 30 μg/kg and three groups of rats treated with IL-6 either at 3, 10 or 30 μg/kg IL-6, s.c. in combination with cis-platinum 3.5 mg/kg, i.p.
IL-6 at […] was given s.c. daily (10 mL/kg) from day 4 up to day 18. […] Tumor size was recorded twice a week for 4 weeks starting 4 days after cell inoculation. […]

[5] = tested on: cisplatin induced neuropathy; test: Morphometric analysis of sciatic nerve in cisplatin-treated rats, co-administration; type: in vivo, rat
Method: The total number of fibers per nerve section was obtained from 3 randomized slices of each sample. The counting was performed on 2 selected fields per slice.

[6] = tested on: lung (SK-MES1) tumor cell line; test: Cell survival by acid phosphatase activity assay, SK-MES1; type: cell-based, human
Method: (§1) The human lung (SK-MES1) and breast (MCF7) tumor cell lines were obtained from ATCC. The cell lines were maintained in Dulbecco's MEM medium (Gibco; Invitrogen, Cergy-Pontoise, France, ref. 41965039) supplemented with 1% antibiotic/antimicotic mixture solution (Gibco, ref. 15240062), and 10% heat-inactivated foetal bovine serum (Gibco, ref. F7524, batch 92K3387). The cells were amplified in Nunc tissue culture flasks (80 cm2) in a humidified incubator at 37° C. with 5% CO2 in 95% air. Cultures were sub-cultured twice a week.
(§2) The enzymatic activity has been proven to be proportional to the number of living cells (Ueda et al.; 1994).
(§3) Three days after the last replication, tumor cells were seeded in 96 well-plates (TPP, VWR International, Fontenay-sous-bois, France) at a density of 1,500 cells (MCF7 line) or 3,000 cells (SK-MES1 line) per well, in a total volume of 100 μl/well and incubated overnight in a humidified incubator at 37° C. with 5% CO2 in 95% air. […] IL-6 (in buffer solution at 1.8 mg/ml, PH: 7) was immediately added at concentrations of 0, 3, 12, 50 or 200 ng/ml.
(§4) Four days after the initiation of the intoxication, acid phosphatase activity (Example 21) in each cell culture was assessed.
(§5) After removal of the culture medium, cells were rinsed with phosphate-buffered saline (PBS, Gibco, ref. 14190-094) and further incubated for 90 min at 37° C. in 100 μl of buffer containing 0.1 mol/l sodium acetate (pH 5.5), 0.1% Triton X100 (Sigma, ref. T9284) and 10 mmol/l p-nitrophenyl phosphate (Sigma, ref. N9389). Reaction was stopped by addition of 10 μl of 1 mol/l sodium hydroxide aqueous solution (Laboratoire de Produit Chimiques de la Robertsau, Strasbourg, France; ref. 28.252.293). Absorbance of the colored solution was measured at 405 nm in a microplate reader (Labsystems Multiskan Bichromatic, EST-LAB, Strasbourg, France).
(§6) The results were expressed as percentage of optical density of the control cell cultures. The heights of the columns represent mean±SEM of percentages of 5-6 wells from two independent cultures.

[7] = tested on: cisplatin induced neuropathy; test: Morphometric analysis, therapeutic treatment of established cisplatin neuropathy; type: in vivo, rat; details: for proportion of degenerated fibers versus control: p≦0.05
From the text: The number of degenerated and non-degenerated fibers on the entire surface of each nerve section was counted by an operator in a blinded fashion. All the results (except the data expressed as ratio value) were reported as percentage of changes in reference to the control value.

[8] = tested on: breast (MCF7) tumor cell line; test: Cell survival by acid phosphatase activity assay, MCF7; type: cell-based, human
Method: as §1, §2, §3, §4, §5, §6

[9] = cisplatin (2.5 μM), carboplatin (25 μM), 4 days
[10] = cisplatin alone, 3 weeks after cessation of cisplatin
[11] = IL-6 3, 12, 50 or 200 ng/ml, p>0.05

Compound: N.N.[Cl][Pt][Cl] [cisplatin, Cis-dichlorodiamine platinum]
- body weight lost at completion of cisplatin administration ([1]; cisplatin 2 mg/kg IP twice a week, 4 weeks, vehicle-treated): about 10%
- hot plate first reaction to heat versus control ([2]; cisplatin alone, from 3 weeks): significant delayed first reaction to heat
- hot plate first reaction to heat versus control ([3]; cisplatin alone, during and 3 weeks post-cisplatin): significant delayed first reaction to heat
- WiDr tumor growth ([4]; cisplatin 3.5 mg/kg i.p. days 4, 8, 12, 18, significant on days 18, 22, 25): reduce tumor growth
- fiber diameter ([5]; cisplatin alone): significantly decreases fibers diameter
- percent of myelinated fibers versus control ([5]; cisplatin alone): significant reduction in the percent of myelinated fibers
- percentage of degenerated fibers versus control ([5]; cisplatin alone): two-folds higher
- decrease in cell survival versus control [6, 9]: about 50%
- proportion of non-degenerated myelinated fibers versus control [7, 10]: lower
- proportion of degenerated fibers versus control [7, 10]: significantly higher
- proportion of non-degenerated myelinated fibers versus control ([7]; cisplatin alone, day 23): lower
- proportion of degenerated fibers versus control ([7]; cisplatin alone, day 23): significant greater proportion of degenerated fibers
- myelin area ([7]; cisplatin alone, day 44, p>0.05): slight but not significant reduction
- overall size of myelin versus control ([7]; cisplatin alone, up to day 23, not significant (p>0.05)): slightly reduced
- decrease in cell survival versus control [8, 9]: about 50%

Compound: IL-6: Recombinant human IL-6 produced in genetically engineered Chinese Hamster Ovary (CHO) cells
- animal growth under cisplatin with IL-6 ([1]; IL-6 0.3, 1, 3, 10 μg/kg SC daily with cisplatin): marked inhibition of animal growth, regardless of IL-6 treatments undertaken
- delay of the first reaction to heat by cisplatin ([2]; IL-6 10 μg/kg SC daily): fully prevented
- delay of the first reaction to heat by cisplatin ([2]; IL-6 0.3, 1, 3, 10 μg/kg SC daily, p≦0.05): prevented/reduced delay of the first reaction to heat
- time of the first reaction to heat, significance ([3]; IL-6 10 μg/kg, 2 weeks after IL-6 treatment, p≦0.05): Significant results
- time of the first reaction to heat ([3]; IL-6 3 and 10 μg/kg SC daily from day 23, two weeks after initiation, p≦0.05): overall reduction in the time of the first reaction
- WiDr tumor growth ([4]; IL-6 alone 3, 10 and 30 μg/kg s.c. daily day 4 to 18): did not significantly affect the growth of the tumor
- loss of myelin wall by cisplatin ([5]; IL-6 1, 3, 10 μg/kg): significantly protected fibers against the loss of myelin wall
- percentage of degenerated fibers by cisplatin ([5]; IL-6 1, 3, 10 μg/kg): reduce the percentage of degenerated fibers
- cisplatin-induced axon diameter decrease ([5]; IL-6, statistically significant at 1-10 μg/kg): prevents/reduces cisplatin-induced axon diameter decrease
- fiber diameter decrease by cisplatin ([5]; IL-6 all doses tested, statistically significant at 1-10 μg/kg): prevents/reduce the diameter decrease
- myelinated fibers in cisplatin treated rats ([5]; IL-6 co-administration): increased myelinated fibers
- survival of vincristine or cisplatine treated cells in the presence of IL-6 [6, 11]: did not change significantly
- survival of carboplatin-intoxicated cells in the presence of IL-6 ([6]; IL-6 3, 12, 50 or 200 ng/ml, significant): decrease of survival
- effect of taxol on cell survival with IL-6 ([6]; IL-6 3-200 ng/ml, p>0.05): did not change the effect of taxol
- survival of cells intoxicated with carboplatin and taxol in the presence of IL-6 ([6]; p>0.05): remained unchanged
- cisplatin-induced myelin sheath thinning ([7]; IL-6 10 μg/kg): appeared to reverse cisplatin-induced myelin sheath thinning
- percentage of degenerated fibers, significance ([7]; IL-6 10 μg/kg): significant effect
- large/small fibers ratio ([7]; IL-6 treatment): slight increase
- percentage of degenerated fibers ([7]; IL-6 treatment (3 and 10 μg/kg)): significantly reduced the percentage of degenerated fibers
- restoring myelin and fiber degeneration compared with 4-MC ([7]; IL-6 vs 4-MC): more efficient than 4-MC
- survival of vincristine or cisplatine or carboplatin treated cells in the presence of IL-6 [8, 11]: did not change significantly
- effect of taxol on cell survival with IL-6 ([8]; IL-6 3-200 ng/ml, p>0.05): did not change the effect of taxol
- survival of cells intoxicated with carboplatin and taxol in the presence of IL-6 ([8]; p>0.05): remained unchanged
